Assay results reported in patent US12398119B2, “Piperazine azaspiro derivatives” (PFIZER INC., priority 2018, dated 2025).
pEC50: −log10 of the molar value. Where two headings read alike, the source gives them in different places.

Target: T1, Human M4 mAChR (Homo sapiens, UniProt P08173)
T1 construct: host or cells: HEK293 (Sor-L9 HEK293 human/M4/GloSensor Cell Clone Number 40)
T1 sequence (P08173 1-479): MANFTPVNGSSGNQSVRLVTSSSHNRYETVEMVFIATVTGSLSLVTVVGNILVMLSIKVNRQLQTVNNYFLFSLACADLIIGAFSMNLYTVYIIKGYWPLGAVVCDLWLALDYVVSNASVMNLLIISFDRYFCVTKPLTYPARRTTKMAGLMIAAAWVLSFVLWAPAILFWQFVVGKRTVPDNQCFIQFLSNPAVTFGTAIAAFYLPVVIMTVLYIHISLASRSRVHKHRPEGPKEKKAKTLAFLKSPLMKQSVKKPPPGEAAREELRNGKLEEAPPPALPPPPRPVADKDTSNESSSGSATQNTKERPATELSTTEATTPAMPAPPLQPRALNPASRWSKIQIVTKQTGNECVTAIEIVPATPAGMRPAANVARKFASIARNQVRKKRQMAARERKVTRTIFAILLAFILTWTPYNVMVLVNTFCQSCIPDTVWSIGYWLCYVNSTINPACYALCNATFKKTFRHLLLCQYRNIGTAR
Test: Muscarinic hM4 Agonist GloSensor cAMP Assay
Format: cell-based
Method in brief: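 HEK293 GloSensor cells stably expressing human M4, plated 25,000/well overnight, equilibrated 2 h with GloSensor reagent, then exposed 7 min at room temperature to compound ([…] to 0.3 nM, 0.25% DMSO) plus EC80 isoproterenol. Luminescence normalized to 10 μM ACh (EC100) and DMSO controls; four-parameter fit gave EC50 and maximum asymptote (efficacy).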

[1] = Emax: maximum asymptote of concentration response curve, relative to ACh positive control (EC100) and DMSO, geometric mean, read-out: % maximum effect
[2] = HEK293 human/M4/GloSensor cells, EC80 isoproterenol, geometric mean, number of determinations in parentheses, read-out: EC50

CCOC(=O)N1CC2(CCC(N3CCN(c4cccnc4OC(F)F)CC3)C2)C1 (single isomer, unassigned) [enantiomer of Example 19, ethyl 6-{4-[2-(difluoromethoxy)pyridin-3-yl]piperazin-1-yl}-2-azaspiro[3.4]octane-2-carboxylate]
pEC50 (enantiomers reported in footnotes to Table 1, number of determinations in parentheses, read-out: M4 EC50): 6.70
Emax (enantiomers reported in footnotes to Table 1, number of determinations in parentheses, read-out: M4 Emax): 74%

CCOC(=O)N1CC2(CCC(N3CCN(c4ncccc4C4CC4)CC3)C2)C1 (single isomer, unassigned) [Example 22, ethyl 6-[4-[3-cyclopropylpyridin-2-yl)piperazin-1-yl]-2-azaspiro[3.4]octane-2-carboxylate]
Emax [1]: 107%
pEC50 [2]: > 10.13

CCOC(=O)N1CC2(CCC(N3CCN(c4ncccc4-c4ccnnc4)CC3)C2)C1 (stereo not drawn) [Example 17, ethyl 6-{4-[3-(pyridazin-4-yl)pyridin-2-yl]piperazin-1-yl}-2-azaspiro[3.4]octane-2-carboxylate]
Emax [1]: 92.3%
pEC50 [2]: 8.36

CCOC(=O)N1CCC2(CC(N3CCN(c4ncccc4OC)CC3)C2)C1 (stereo not drawn) [Example 12, ethyl 2-[4-(3-methoxypyridin-2-yl)piperazin-1-yl]-6-azaspiro[3.4]octane-6-carboxylate]
Emax [1]: 95.2%
pEC50 [2]: 7.63

CCOC(=O)N1CC2(CC(N3CCN(c4ncccc4-c4cc(C)ns4)CC3)C2)C1 [Example 32, ethyl 6-{4-[3-(3-methyl-1,2-thiazol-5-yl)pyridin-2-yl]piperazin-1-yl}-2-azaspiro[3.3]heptane-2-carboxylate]
Emax [1]: 84.3%
pEC50 [2]: 7.56

CCOC(=O)N1CC2(CCC(N3CCN(c4ncc(F)cc4-c4cscn4)CC3)C2)C1 (single isomer, unassigned) [Example 26, ethyl 6-{4-[5-fluoro-3-(1,3-thiazol-4-yl)pyridin-2-yl]piperazin-1-yl}-2-azaspiro[3.4]octane-2-carboxylate]
Emax [1]: 59.8%
pEC50 [2]: 7.58
